Assay results published in ChEMBL document CHEMBL1121473, “Conformationally defined aromatic amino acids. Synthesis and stereochemistry of 2-endo- and 2-exo-amino-1,2,3,4-tetrahydro-1,4-ethanonaphthalene-2-carboxylic acids (2-endo- and 2-exo-aminobenzobicycle[2.2.2]octene-2-carboxylic acids)” (J Med Chem, 1980).
Values belong to the compound of their own block, whether it stands above or below them.

Assays:
Enterococcus faecalis [1] = test: ability to inhibit the decarboxylation of L-phenyl-alanine using a crude enzyme preparation of phenylalanine decarboxylase (PAD) from Streptococcus faecalis, at 1.76 mM concentration
Enterococcus faecalis [2] = test: ability to inhibit the decarboxylation of L-phenyl-alanine using a crude enzyme preparation of phenylalanine decarboxylase (PAD) from Streptococcus faecalis, at 1 mM concentration
Enterococcus faecalis [3] = test: Ability to inhibit the decarboxylation of L-phenyl-alanine using a crude enzyme preparation of phenylalanine decarboxylase (PAD) from Streptococcus faecalis at 1.76 mM concentration
Enterococcus faecalis [4] = test: Ability to inhibit the decarboxylation of L-phenyl-alanine using a crude enzyme preparation of phenylalanine decarboxylase (PAD) from Streptococcus faecalis, at 1.76 mM concentration

inhibition (Enterococcus faecalis [1]): 8%
SMILES: C[C@](N)(Cc1ccc(O)c(O)c1)C(=O)O (racemic)

inhibition (Enterococcus faecalis [2]): 24%
SMILES: N[C@@H](Cc1ccc(Cl)cc1)C(=O)O (racemic)

SMILES: NC1(C(=O)O)CC2CC[C@@H]1c1ccccc12 (stereo in doubt; 1a)
inhibition (Enterococcus faecalis [3]): 7%

SMILES: NC1(C(=O)O)CC2CC[C@@H]1c1ccccc12 (stereo in doubt; 1b)
inhibition (Enterococcus faecalis [4]): 8%
